Measurements as given in ChEMBL document CHEMBL5226307, “Advances in Cyclic Nucleotide Phosphodiesterase-Targeted PET Imaging and Drug Discovery” (J Med Chem, 2021).

What was measured:
[1] = target: T1, cGMP-dependent 3',5'-cyclic phosphodiesterase (Homo sapiens, UniProt O00408); assay: Inhibition of human PDE2A
[2] = target: T2, cAMP and cAMP-inhibited cGMP 3',5'-cyclic phosphodiesterase 10A (Homo sapiens, UniProt Q9Y233); assay: Inhibition of human PDE10A
[3] = Drug uptake in NMRI mouse lung assessed as maximum standardized uptake value incubated for 30 mins; type: ADME, tissue-based; settings: in vivo, 0.5 h
[4] = Drug uptake in NMRI mouse lung incubated for 30 mins relative to control; type: ADME, tissue-based; settings: in vivo, 0.5 h
[5] = target: T2, cAMP and cAMP-inhibited cGMP 3',5'-cyclic phosphodiesterase 10A; assay: Inhibition of PDE10A (unknown origin)
[6] = target: T2, cAMP and cAMP-inhibited cGMP 3',5'-cyclic phosphodiesterase 10A; assay: Binding affinity to PDE10A (unknown origin) assessed as dissociation constant
[7] = Stability in human plasma assessed as parent compound remaining after 120 mins; type: ADME, cell-free; settings: read-out: Stability
[8] = Drug uptake in human caudate nucleus assessed as standardized uptake value; type: ADME, tissue-based
[9] = Drug uptake in human putamen nucleus assessed as standardized uptake value; type: ADME, tissue-based
[10] = Drug uptake in human globus pallidus assessed as standardized uptake value; type: ADME, tissue-based
[11] = Drug uptake in pig myocardium assessed as standardized uptake value; type: ADME, tissue-based, Sus scrofa; settings: in vivo
[12] = Toxicity in mouse assessed as body weight loss at 10 mg/kg/day, po; type: organism-based; settings: in vivo
Phosphodiesterase 1 = Phosphodiesterase 1 (Homo sapiens, UniProt P54750+Q01064+Q14123); assay: Inhibition of PDE1 (unknown origin); type: protein assay
[13] = target: T2, cAMP and cAMP-inhibited cGMP 3',5'-cyclic phosphodiesterase 10A; assay: Inhibition of human PDE10
[14] = target: Dual 3',5'-cyclic-AMP and -GMP phosphodiesterase 11A (Homo sapiens, UniProt Q9HCR9); assay: Inhibition of human PDE11
[15] = target: T3, cGMP-specific 3',5'-cyclic phosphodiesterase (Homo sapiens, UniProt O76074); assay: Inhibition of PDE5A (unknown origin)
[16] = target: T3, cGMP-specific 3',5'-cyclic phosphodiesterase; assay: Binding affinity to PDE5 (unknown origin); settings: tested as the 18F-labelled form
[17] = Lipophilicity, logD of the compound in Octanol/potassium phosphate buffer at pH 7.4 after 1 hr by HPLC analysis; type: physicochemical
[18] = Metabolic stability in non human primates plasma assessed as parent compound remaining incubated for 70 mins by HPLC analysis; type: ADME, cell-free; settings: read-out: Stability
[19] = Metabolic stability in baboon brain assessed as parent compound remaining incubated for 90 mins; type: ADME, tissue-based, Papio; settings: read-out: Stability
Phosphodiesterase 7 = Phosphodiesterase 7 (Homo sapiens, UniProt Q13946+Q9NP56); assay: Inhibition of PDE7 (unknown origin); type: protein assay
[20] = Stability in mouse brain measured at 15 mins; type: ADME, tissue-based; settings: read-out: Stability
[21] = Metabolic stability in mouse brain assessed as parent compound remaining incubated for 30 mins by HPLC analysis; type: ADME, tissue-based; settings: read-out: Stability
[22] = Metabolic stability in mouse plasma assessed as parent compound remaining incubated for 30 mins by HPLC analysis; type: ADME, cell-free; settings: read-out: Stability
[23] = Drug uptake in mouse striatum; type: ADME, tissue-based; settings: in vivo
[24] = Drug uptake in mouse brown adipose tissue; type: ADME, tissue-based; settings: in vivo
[25] = Drug uptake in mouse striatum assessed as standardized uptake value; type: ADME, tissue-based; settings: in vivo
Phosphodiesterase 4 = Phosphodiesterase 4 (Homo sapiens, UniProt P27815+Q08499+Q07343+Q08493); assay: Binding affinity to human PDE4 assessed as dissociation constant; type: protein assay
[26] = target: T2, cAMP and cAMP-inhibited cGMP 3',5'-cyclic phosphodiesterase 10A; assay: Binding affinity to full length human PDE10A assessed as dissociation constant using [3H]-cAMP as substrate
[27] = target: T2, cAMP and cAMP-inhibited cGMP 3',5'-cyclic phosphodiesterase 10A; assay: Binding affinity to full length human PDE10A assessed as dissociation constant
[28] = target: T3, cGMP-specific 3',5'-cyclic phosphodiesterase; assay: Inhibition of PDE5 (unknown origin)
[29] = target: High affinity 3',5'-cyclic-AMP phosphodiesterase 7A (Homo sapiens, UniProt Q13946); assay: Inhibition of human PDE7A1
[30] = target: Dual specificity calcium/calmodulin-dependent 3',5'-cyclic nucleotide phosphodiesterase 1B (Homo sapiens, UniProt Q01064); assay: Inhibition of human PDE1B
[31] = target: Dual specificity calcium/calmodulin-dependent 3',5'-cyclic nucleotide phosphodiesterase 1C (Homo sapiens, UniProt Q14123); assay: Inhibition of human PDE1C
[32] = target: T1, cGMP-dependent 3',5'-cyclic phosphodiesterase; assay: Inhibition of human PDE2
[33] = target: T3, cGMP-specific 3',5'-cyclic phosphodiesterase; assay: Inhibition of human PDE5
[34] = target: 3',5'-cyclic-AMP phosphodiesterase 4A (Homo sapiens, UniProt P27815); assay: Inhibition of human PDE4A
[35] = Metabolic stability in cynomolgus monkey assessed as parent compound remaining incubated for 30 mins in presence of NADPH; type: ADME, Macaca fascicularis; settings: read-out: Stability
[36] = target: T4, cAMP and cAMP-inhibited cGMP 3',5'-cyclic phosphodiesterase 10A (Rattus norvegicus, UniProt Q9QYJ6)
T4 sequence (Q9QYJ6 whole entry): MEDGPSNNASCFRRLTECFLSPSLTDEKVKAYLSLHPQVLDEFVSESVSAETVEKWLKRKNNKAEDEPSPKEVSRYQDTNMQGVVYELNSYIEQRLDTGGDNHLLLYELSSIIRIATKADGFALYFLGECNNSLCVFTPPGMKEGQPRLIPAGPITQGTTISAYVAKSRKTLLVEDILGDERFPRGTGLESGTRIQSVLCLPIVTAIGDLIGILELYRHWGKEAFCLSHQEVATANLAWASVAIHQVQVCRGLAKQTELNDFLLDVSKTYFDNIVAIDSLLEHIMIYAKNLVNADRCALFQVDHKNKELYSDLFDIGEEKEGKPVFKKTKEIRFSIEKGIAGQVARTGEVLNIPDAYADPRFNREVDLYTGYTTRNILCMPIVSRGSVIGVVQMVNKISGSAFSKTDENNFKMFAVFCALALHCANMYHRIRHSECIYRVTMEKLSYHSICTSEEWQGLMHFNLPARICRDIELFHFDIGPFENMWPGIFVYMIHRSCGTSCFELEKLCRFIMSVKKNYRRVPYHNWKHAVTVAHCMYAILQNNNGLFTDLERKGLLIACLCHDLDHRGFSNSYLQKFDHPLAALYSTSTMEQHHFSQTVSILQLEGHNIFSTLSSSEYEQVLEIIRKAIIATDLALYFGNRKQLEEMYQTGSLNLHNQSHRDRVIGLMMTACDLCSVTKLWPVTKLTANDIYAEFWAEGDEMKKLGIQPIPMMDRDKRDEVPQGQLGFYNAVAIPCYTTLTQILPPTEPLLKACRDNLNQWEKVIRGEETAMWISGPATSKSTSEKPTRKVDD

T2 sequence (Q9Y233 whole entry): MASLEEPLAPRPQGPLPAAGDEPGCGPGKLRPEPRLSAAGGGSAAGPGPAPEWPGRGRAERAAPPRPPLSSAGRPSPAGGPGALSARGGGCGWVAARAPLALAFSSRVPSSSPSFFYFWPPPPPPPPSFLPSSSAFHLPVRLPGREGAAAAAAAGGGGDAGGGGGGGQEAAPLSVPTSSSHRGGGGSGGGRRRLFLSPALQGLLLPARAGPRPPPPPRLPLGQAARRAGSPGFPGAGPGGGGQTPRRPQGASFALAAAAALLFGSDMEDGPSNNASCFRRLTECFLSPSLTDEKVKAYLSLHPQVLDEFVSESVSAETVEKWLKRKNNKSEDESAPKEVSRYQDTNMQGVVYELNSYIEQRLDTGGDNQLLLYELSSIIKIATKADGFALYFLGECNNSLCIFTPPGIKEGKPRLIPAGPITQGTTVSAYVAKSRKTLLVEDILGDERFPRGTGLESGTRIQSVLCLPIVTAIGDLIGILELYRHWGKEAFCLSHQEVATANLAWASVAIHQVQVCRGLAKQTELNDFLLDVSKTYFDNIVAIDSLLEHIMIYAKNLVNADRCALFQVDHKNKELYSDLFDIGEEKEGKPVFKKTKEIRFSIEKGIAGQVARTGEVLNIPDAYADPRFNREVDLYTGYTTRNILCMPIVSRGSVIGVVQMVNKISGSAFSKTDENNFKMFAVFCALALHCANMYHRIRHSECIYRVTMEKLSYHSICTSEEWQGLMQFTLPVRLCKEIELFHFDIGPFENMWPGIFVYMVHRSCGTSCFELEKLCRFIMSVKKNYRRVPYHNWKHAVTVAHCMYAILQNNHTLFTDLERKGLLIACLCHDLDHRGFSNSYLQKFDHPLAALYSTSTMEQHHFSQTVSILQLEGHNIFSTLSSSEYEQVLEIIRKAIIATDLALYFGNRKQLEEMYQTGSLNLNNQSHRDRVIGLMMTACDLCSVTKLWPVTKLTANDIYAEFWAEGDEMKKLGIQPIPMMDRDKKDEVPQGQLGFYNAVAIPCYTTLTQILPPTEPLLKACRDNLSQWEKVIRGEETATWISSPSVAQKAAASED
T1 sequence (O00408 whole entry): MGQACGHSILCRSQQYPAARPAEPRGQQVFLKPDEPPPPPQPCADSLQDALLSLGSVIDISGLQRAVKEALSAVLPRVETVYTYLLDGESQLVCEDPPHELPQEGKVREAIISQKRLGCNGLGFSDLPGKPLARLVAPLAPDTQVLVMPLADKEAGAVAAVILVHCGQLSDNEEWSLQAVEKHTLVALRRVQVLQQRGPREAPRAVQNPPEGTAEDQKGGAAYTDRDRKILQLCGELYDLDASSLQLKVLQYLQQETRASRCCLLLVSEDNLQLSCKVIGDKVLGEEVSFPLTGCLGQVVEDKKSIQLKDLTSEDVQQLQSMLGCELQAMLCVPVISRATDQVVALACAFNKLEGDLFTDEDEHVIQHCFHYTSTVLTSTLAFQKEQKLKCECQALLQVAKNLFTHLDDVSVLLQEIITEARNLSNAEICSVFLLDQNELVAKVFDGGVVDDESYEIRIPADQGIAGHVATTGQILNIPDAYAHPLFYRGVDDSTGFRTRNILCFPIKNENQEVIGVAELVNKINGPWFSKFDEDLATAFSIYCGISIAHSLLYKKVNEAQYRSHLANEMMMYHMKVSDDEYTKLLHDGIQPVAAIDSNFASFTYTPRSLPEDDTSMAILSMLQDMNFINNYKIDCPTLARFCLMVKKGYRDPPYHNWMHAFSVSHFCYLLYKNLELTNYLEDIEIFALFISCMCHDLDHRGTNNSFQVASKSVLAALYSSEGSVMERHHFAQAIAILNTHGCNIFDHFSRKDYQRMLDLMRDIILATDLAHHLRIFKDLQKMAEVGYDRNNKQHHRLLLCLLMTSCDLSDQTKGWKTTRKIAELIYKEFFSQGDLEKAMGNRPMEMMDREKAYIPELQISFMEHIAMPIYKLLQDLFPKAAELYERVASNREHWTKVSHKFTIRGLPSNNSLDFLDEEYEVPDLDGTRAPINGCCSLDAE
Dual specificity calcium/calmodulin-dependent 3',5'-cyclic nucleotide phosphodiesterase 1C, sequence (Q14123 whole entry): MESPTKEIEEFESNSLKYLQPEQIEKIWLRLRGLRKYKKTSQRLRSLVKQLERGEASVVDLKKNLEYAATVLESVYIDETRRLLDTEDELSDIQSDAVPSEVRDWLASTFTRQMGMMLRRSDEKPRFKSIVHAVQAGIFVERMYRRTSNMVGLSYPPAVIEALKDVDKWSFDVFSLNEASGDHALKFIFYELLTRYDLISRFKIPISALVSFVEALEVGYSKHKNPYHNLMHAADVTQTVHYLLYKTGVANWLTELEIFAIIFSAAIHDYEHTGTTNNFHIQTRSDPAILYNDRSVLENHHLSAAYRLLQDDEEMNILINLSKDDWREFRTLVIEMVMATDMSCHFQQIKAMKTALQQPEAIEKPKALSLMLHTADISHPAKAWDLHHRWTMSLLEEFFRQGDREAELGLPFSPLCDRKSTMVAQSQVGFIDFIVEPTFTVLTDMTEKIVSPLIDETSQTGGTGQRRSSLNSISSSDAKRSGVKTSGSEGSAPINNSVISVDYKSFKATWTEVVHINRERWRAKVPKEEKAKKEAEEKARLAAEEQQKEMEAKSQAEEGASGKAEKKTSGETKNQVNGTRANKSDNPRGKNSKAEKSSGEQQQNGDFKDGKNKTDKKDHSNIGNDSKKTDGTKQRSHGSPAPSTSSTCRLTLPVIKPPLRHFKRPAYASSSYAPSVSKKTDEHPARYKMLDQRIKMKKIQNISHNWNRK
Dual 3',5'-cyclic-AMP and -GMP phosphodiesterase 11A, sequence (Q9HCR9 whole entry): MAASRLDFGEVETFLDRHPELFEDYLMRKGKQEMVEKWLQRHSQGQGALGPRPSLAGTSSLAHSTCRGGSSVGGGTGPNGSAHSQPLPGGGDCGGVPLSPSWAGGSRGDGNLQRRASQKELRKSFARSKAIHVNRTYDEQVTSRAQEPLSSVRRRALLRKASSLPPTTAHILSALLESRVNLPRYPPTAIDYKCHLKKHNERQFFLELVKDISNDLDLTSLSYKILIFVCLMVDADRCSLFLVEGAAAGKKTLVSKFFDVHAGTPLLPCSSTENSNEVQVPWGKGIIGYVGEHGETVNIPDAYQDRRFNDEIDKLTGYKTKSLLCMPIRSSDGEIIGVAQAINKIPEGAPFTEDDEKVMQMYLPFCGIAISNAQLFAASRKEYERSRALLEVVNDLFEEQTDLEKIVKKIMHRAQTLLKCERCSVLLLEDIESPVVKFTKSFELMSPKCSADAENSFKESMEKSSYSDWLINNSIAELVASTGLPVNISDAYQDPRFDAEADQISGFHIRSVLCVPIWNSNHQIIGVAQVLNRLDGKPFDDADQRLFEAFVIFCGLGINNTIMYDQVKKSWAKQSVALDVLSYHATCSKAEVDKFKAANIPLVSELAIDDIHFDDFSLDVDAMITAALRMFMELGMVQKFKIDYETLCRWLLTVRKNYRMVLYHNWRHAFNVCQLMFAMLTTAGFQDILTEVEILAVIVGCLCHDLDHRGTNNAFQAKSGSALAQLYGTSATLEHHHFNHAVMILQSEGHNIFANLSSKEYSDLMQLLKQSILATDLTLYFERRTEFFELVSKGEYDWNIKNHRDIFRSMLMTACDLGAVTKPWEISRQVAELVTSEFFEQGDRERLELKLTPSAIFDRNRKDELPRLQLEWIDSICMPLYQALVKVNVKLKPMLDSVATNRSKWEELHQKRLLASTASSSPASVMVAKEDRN
High affinity 3',5'-cyclic-AMP phosphodiesterase 7A, sequence (Q13946 whole entry): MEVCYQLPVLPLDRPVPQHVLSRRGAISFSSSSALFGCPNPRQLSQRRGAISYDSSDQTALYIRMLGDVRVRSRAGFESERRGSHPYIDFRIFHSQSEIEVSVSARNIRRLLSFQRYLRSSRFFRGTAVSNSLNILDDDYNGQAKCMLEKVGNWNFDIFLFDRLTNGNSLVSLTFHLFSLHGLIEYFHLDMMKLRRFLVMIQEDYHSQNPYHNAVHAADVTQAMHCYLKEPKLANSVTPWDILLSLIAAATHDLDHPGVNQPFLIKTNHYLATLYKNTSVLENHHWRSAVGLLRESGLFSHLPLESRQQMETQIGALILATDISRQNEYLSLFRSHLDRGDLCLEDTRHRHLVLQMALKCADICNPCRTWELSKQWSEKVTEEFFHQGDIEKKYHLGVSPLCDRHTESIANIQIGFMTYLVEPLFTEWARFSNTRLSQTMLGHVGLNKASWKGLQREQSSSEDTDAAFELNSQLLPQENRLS
Dual specificity calcium/calmodulin-dependent 3',5'-cyclic nucleotide phosphodiesterase 1B, sequence (Q01064 whole entry): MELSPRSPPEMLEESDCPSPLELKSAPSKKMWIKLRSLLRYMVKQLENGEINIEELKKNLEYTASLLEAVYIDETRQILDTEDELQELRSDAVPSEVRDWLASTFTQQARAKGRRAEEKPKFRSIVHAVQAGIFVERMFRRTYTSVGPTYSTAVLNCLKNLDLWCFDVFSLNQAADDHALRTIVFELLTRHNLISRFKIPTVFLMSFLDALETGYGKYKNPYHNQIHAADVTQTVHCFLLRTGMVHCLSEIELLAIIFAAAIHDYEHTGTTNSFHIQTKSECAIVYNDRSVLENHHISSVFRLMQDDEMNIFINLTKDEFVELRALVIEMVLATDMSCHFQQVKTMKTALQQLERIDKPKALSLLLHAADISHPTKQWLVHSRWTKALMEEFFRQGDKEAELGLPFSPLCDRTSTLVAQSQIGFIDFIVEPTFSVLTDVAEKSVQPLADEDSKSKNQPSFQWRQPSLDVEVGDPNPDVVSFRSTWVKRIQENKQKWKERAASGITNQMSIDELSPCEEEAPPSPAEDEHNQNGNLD

Compound `COc1ccc2nnc3c(C)nc(-c4cc(OCCC[18F])ccc4F)n3c2n1` has an IC50 [1] of 11.4 nM and an IC50 [2] of 7.3 nM.

`CCCc1nn(C)c2c(=O)[nH]c(-c3cc(S(=O)(=O)N4CCN([11CH3])CC4)ccc3OCC)nc12` showed an SUVmax [3] of 8 and a Drug uptake [4] of over 86%.

With `CC(=O)N1CCC(c2nccnc2Oc2ccc(C(=O)c3nc4ccccc4[nH]3)cc2)CC1` the IC50 [5] was 0.18 nM.

`Cc1ccc2c(=O)n(-c3ccc4cnn(CC[18F])c4c3)c(CCN3C(=O)c4cccc(OC(C)C)c4C3=O)nc2c1` showed a Kd [6] of 0.029 nM, a remaining at 2 h [7] of 20% and an SUV [8] of 0.7%. The SUV [9] was 0.7% and the SUV [10] was 1.5%.

With `CCCCN1C(=O)[C@H]2Cc3c([nH]c4ccccc34)[C@@H](c3ccc(O[11CH3])cc3)N2C1=O` the SUV [11] was 3.8.

`CC([18F])C(=O)N1CCC(c2nccnc2Oc2ccc(C(=O)c3nc4ccccc4[nH]3)cc2)CC1` (stereo not drawn) showed an IC50 [5] of 0.13 nM.

For `CCCCN1C(=O)[C@H]2Cc3c([nH]c4ccccc34)[C@@H](c3ccc(OC)cc3)N2C1=O`, the SUV [11] was 2.6.

Work on `Cn1cc(-c2ccncc2)c(-c2ccc(OCc3ccc4ccccc4n3)cc2)n1` [MARDEPODECT] yielded an Activity [12] of 8.61%.

`CCC(CC)Nc1ncnc2c(OC)c(OC)ccc12` showed an IC50 (Phosphodiesterase 1) of 170 nM.

`Cc1ccc2c(=O)n(-c3ccc(OC[18F])cc3)c(CCN3C(=O)c4cccc(OC(C)C)c4C3=O)nc2c1` gave a Kd [6] of 0.097 nM and a remaining at 2 h [7] of 20%.

In the case of `CCCc1nc(C)c2c(=O)[nH]c(-c3cc(S(=O)(=O)N4CCN(CC[18F])CC4)ccc3OCC)nn12`, the SUVmax [3] is reported as 8.9.

Work on `CC(C)C(=O)c1c(C(C)C)nn2ccccc12` [IBUDILAST] yielded an IC50 [13] of at most 10000 nM and an IC50 [14] of at most 10000 nM.

In the case of `CCc1cc(C#N)cc2c(NCc3ccc(OC)c(Cl)c3)c(COCCF)cnc12`, the IC50 [15] is reported as 5.92 nM and the Bmax [16] is reported as 0.1 nM.

With `CCCCOc1ccc(F)c(-c2nc(C)c3nnc4ccc(OCC[18F])nc4n23)c1` the IC50 [2] was over 1000 nM.

With `CC(C)Oc1cccc2c1C(=O)N(CCc1nc3ccccc3c(=O)n1-c1ccc(O[11CH3])cc1)C2=O` the logD at 1 h [17] was 3.19.

In the case of `[11CH3]n1cc(-c2ccncc2)c(-c2ccc(OCc3ccc4ccccc4n3)cc2)n1`, the remaining at 1.167 h [18] is reported as 24% and the remaining at 1.5 h [19] is reported as 30%.

`COc1ccc2nnc3c(C)nc(-c4cc(OCCCC[18F])ccc4F)n3c2n1` gave an IC50 [1] of 913 nM and an IC50 [2] of 7.3 nM.

For `Cc1cnc(COc2ccc(-c3nn(CC[18F])cc3-c3ccncc3)cc2)c(C)c1`, the IC50 [5] was 2 nM.

With `[11CH3]Oc1cn(-c2ccc(C3CCOCC3)cc2F)nc(-c2ccnn2-c2ccccc2)c1=O` the IC50 [5] was 0.77 nM.

For `[11CH3]n1nnc(COc2ccc(Cl)c3c2C2(CCCCC2)NC(=O)N3)n1`, the IC50 (Phosphodiesterase 7) was 1.7 nM and the remaining at […] [20] was 74%.

`COc1cc2nncc(-c3cnc(NC(C)C)c(C)c3)c2cc1O[11CH3]` showed an IC50 [5] of 1.9 nM.

In the case of `COc1cc(Br)cc2c1nc(C)c1c(C)nc(-c3ccc([18F])nc3)n12`, the remaining at 0.5 h [21] is reported as 88%, the remaining at 0.5 h [22] is reported as 64% and the Drug uptake [23] is reported as 130%. It also gave a Drug uptake [24] of 30% and an SUV [25] of 2.7.

With `O=C1C[C@H](c2ccc(OCF)c(OC3CCCC3)c2)CN1` the Kd (Phosphodiesterase 4) was 0.26 nM.

Work on `[18F]CCn1cc(-c2ccncc2)c(-c2ccc(OCc3ccc4ccccc4n3)cc2)n1` yielded an IC50 [5] of 0.5 nM, a Kd [26] of 3.17 nM and a Kd [27] of 6.62 nM.

For `[11CH3]N(c1cc(N2CC[C@@H](F)C2)nc2cc(-c3cnc4c(n3)CCCC4)nn12)C1CCOCC1`, the IC50 [5] was 0.06 nM and the remaining at 1.5 h [19] was 50%.

Compound `CC(C)Cn1c(=O)n(C)c(=O)c2c(Nc3ccccc3)n(Cc3ccc(C4CCCN4C)cc3)nc21` (stereo not drawn) has an IC50 (Phosphodiesterase 1) of 13 nM.

Compound `COc1ccc(CNc2c(CO)cnc3c(N4CC(F)C4)cc(C#N)cc23)cc1Cl` has an IC50 [28] of 1.86 nM, an IC50 [15] of 5.92 nM and a Bmax [16] of 0.1 nM.

Work on `Cc1ccc([N+](=O)[O-])cc1S(=O)(=O)N(C)C` yielded an IC50 [29] of 260 nM, an IC50 [30] of 62000 nM and an IC50 [31] of 62000 nM. It also gave an IC50 [32] of 62000 nM, an IC50 [33] of 62000 nM and an IC50 [34] of 62000 nM.

In the case of `Cc1ccc(C)n2nc(CCc3nc(-c4ccccc4)cn3[11CH3])nc12`, the remaining at 0.5 h [35] is reported as 27% and the IC50 [36] is reported as 0.39 nM.

`O=C1Nc2c(Cl)ccc(OCC[18F])c2C2(CCCCC2)N1` showed an IC50 (Phosphodiesterase 7) of 17 nM and a remaining at […] [20] of 84%.
